Measured values reported in PubChem BioAssay (NCI).
“And” between values parts separate entries of the source, which are not always exact repeats. Equal entries are not always repeated.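 Following 48 hours of exposure in 96-well plates, responses at five concentrations were used to interpolate endpoints linearly. At the GI50, growth is halved. TGI: total growth inhibition.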

How the values were obtained:
Assay in all cases: NCI-60 cell line screen, 48 h
EKVX NSCLC = system: EKVX NSCLC
HCT-15 colon = system: HCT-15 colon
HT29 colon = system: HT29 colon
K-562 leukemia = system: K-562 leukemia
LOX IMVI melanoma = system: LOX IMVI melanoma
MOLT-4 leukemia = system: MOLT-4 leukemia
SK-MEL-5 melanoma = system: SK-MEL-5 melanoma
SN12C renal = system: SN12C renal
HCT-116 colon = system: HCT-116 colon
T-47D breast = system: T-47D breast

SMILES | GI50 (EKVX NSCLC) [µM] | TGI (EKVX NSCLC) [µM] | GI50 (HCT-15 colon) | TGI (HCT-15 colon) [µM] | GI50 (HT29 colon) | TGI (HT29 colon) [µM] | GI50 (K-562 leukemia) | TGI (K-562 leukemia) [µM] | GI50 (LOX IMVI melanoma) | TGI (LOX IMVI melanoma) [µM] | GI50 (MOLT-4 leukemia) | TGI (MOLT-4 leukemia) [µM] | GI50 (SK-MEL-5 melanoma) | TGI (SK-MEL-5 melanoma) | GI50 (SN12C renal) | TGI (SN12C renal) [µM] | TGI (HCT-116 colon) [µM] | GI50 (HCT-116 colon) | GI50 (T-47D breast) [µM] | TGI (T-47D breast) [µM]
CCOC(=O)[C@@H](C)C[C@H](Cc1ccccc1)NC(=O)c1csc([C@@H](C[C@H](C(C)C)N(C)C(=O)[C@@H](NC(=O)[C@H]2C[C@H](O)CCN2C)C(C)C)OC(C)=O)n1 | 0.05 | > 16.7 | 0.149 µM | > 16.7 | 0.0023 µM | > 16.7 | 0.00252 µM | > 16.7 | 0.00422 µM | > 16.7 | 0.00714 µM | > 16.7 | 0.00175 µM | 0.13 µM | 0.00936 µM | > 16.7 |  |  |  | 
C=C1c2[nH]c3ccccc3c2CC(C(=O)O)N1C(O)c1ccc(S(=O)(=O)O)cc1 (stereo unspecified) |  |  |  |  |  | > 100 |  | > 100 |  | > 100 |  | > 100 |  | > 100 µM |  | > 100 | > 100 |  |  | 
Cc1ccc(NC(=O)c2nc(S(C)(=O)=O)oc2-c2ccc(F)cc2)cc1Nc1ccc2ncn(C)c(=O)c2c1 |  |  |  |  |  |  |  |  |  |  |  |  |  |  |  |  | 3.37 | 1.75 µM |  | 
CCc1nc2ccccc2c(=O)n1/N=C(\N=Nc1ccc(Cl)cc1)c1ccccc1 |  | 75.2 |  | > 100 |  | 36.9 |  |  |  | 40.5 |  | > 100 |  | 44.6 µM |  | > 100 | 64.5 |  |  | 
O=C1NC(=O)C2C1C1C=C3c4ccccc4N(c4ccccc4)C32[C@H]2C(=O)NC(=O)[C@@H]12 (stereo partly specified) |  | > 100 |  | > 100 |  | > 100 |  | > 100 |  | > 100 |  | > 100 |  | > 100 µM |  | > 100 | > 100 |  |  | 
FC(F)(F)c1ccc(-c2ncc(-c3ccc(C(F)(F)F)cc3)c(NCc3cc(C(F)(F)F)cc(C(F)(F)F)c3)n2)cc1 |  |  | 3.74 µM | > 100 | 6.95 µM | > 100 | 3.97 µM | > 100 | 3.4 µM | 26.2 | 4.35 µM | 71.8 | 16.5 µM | 41.8 µM | 3.65 µM | > 100 | > 100 | 3.84 µM | 3.12 | 29
C#CCn1c(=O)c2cccnc2n(CC#C)c1=O |  |  |  | > 100 |  | > 100 |  |  |  | > 100 |  | > 100 |  | > 100 µM |  | > 100 | > 100 |  |  | 
COC1=CC(=O)OC(/C=C(C)/C=C/C2=C(C)CCCC2(C)C)C1 (stereo unspecified) |  | > 100 |  |  |  | > 100 |  | > 100 |  |  |  | > 100 |  | > 100 µM |  | > 100 | > 100 |  |  | 
COC(=O)c1nc(C(=O)OC)c2c([nH]c3ccccc32)c1C(=O)OC |  |  |  | > 100 |  | > 100 |  |  |  | > 100 |  | > 100 |  | 95.1 µM |  | > 100 | > 100 |  |  | 
COC(=O)[C@@H](C)C[C@H](Cc1ccccc1)NC(=O)c1csc([C@@H](C[C@H](C(C)C)N(C)C(=O)C2(NC(=O)[C@H]3CCCCN3C)CCC2)OC(C)=O)n1 |  | > 25 | 0.0944 µM and 0.0665 µM | > 25 | 0.00269 µM and 0.0025 µM | > 25 | 0.00252 µM and 0.0025 µM | > 25 | 0.00771 µM and 0.0025 µM | > 25 | 0.0107 µM and 0.00714 µM | > 25 | 0.00401 µM and 0.0025 µM | 0.146 µM and 0.125 µM | 0.0087 µM and 0.017 µM | > 25 | 2.52 | 0.00447 µM and 0.0025 µM |  | 
CC(C)OCc1cc(CN2CCN(c3cccc(Cl)c3)CC2)c(O)c2ncccc12 |  |  | 0.153 µM | 17.6 | 6.76 µM | 21.8 | 0.349 µM | 10.3 | 0.416 µM | 10.2 | 0.362 µM | 3.41 | 0.445 µM | 2.1 µM | 0.917 µM | 15.6 | 3.79 | 0.425 µM | 0.556 | 18.4
CC(=O)N(CCN1C(=O)c2ccccc2C1=O)CCN1C(=O)c2ccccc2C1=O |  | > 100 |  | > 100 |  |  |  | > 100 |  | > 100 |  | > 100 |  | > 100 µM |  | > 100 | > 100 |  |  | 
OCCCc1cnco1 |  | > 100 |  | > 100 |  | > 100 |  | > 100 |  | > 100 |  | > 100 |  | > 100 µM |  | > 100 | > 100 |  |  | 
CC(=O)Oc1c(Br)ccc2cc(C(Br)Br)c(C(=O)c3ccccc3)nc12 |  | 39.4 |  | 44.2 |  | 40.1 |  | 44.1 |  | 50.9 |  | 46.2 |  | 38.7 µM |  | 45.6 | 42.9 |  |  | 
CC(=O)SC(SC(C)=O)SC(C)=O |  | > 100 |  | > 100 |  | > 100 |  | > 100 |  | > 100 |  | > 100 |  | > 100 µM |  | > 100 | > 100 |  |  | 
Fc1ccc(C2SCc3nc4ccccc4n32)cc1F (stereo unspecified) |  | > 100 |  | > 100 |  |  |  | > 100 |  |  |  | 56 |  | 34.3 µM |  | > 100 | > 100 |  |  | 
CCC(C)CC(C)C(=O)c1c(O)ccn(O)c1=O (stereo unspecified) |  |  | 0.46 µM | > 100 | 27.2 µM | > 100 | 0.631 µM | > 100 | 0.804 µM | > 100 | 1.06 µM | 17.6 | 1.53 µM | 6.1 µM | 1.38 µM | 16.2 | > 100 | 1.08 µM | 4.12 | 76.9
O=[N+]([O-])c1ccc(/C(Cl)=C/c2ccc(/C=C(\Cl)c3ccc([N+](=O)[O-])cc3[N+](=O)[O-])cc2)c([N+](=O)[O-])c1 |  | > 100 |  | > 100 |  | > 100 |  |  |  | > 100 |  | > 100 |  | > 100 µM |  | > 100 | > 100 |  |  | 
CCCCN(CCCC)CC(C(=O)Nc1ccc([N+](=O)[O-])cc1[N+](=O)[O-])/C(C)=N\NC(=O)C[N+](C)(C)C (stereo unspecified) |  | > 100 |  | > 100 |  | > 100 |  | > 100 |  | > 100 |  | > 100 |  | > 100 µM |  | > 100 | > 100 |  |  | 
O=C(c1cccs1)c1nc2cc(Cl)ccc2[n+]([O-])c1C(F)(F)F | 51.8 | > 100 | > 100 µM | > 100 | 58.9 µM | > 100 | > 100 µM | > 100 | > 100 µM | > 100 | 70.1 µM | > 100 | 45.4 µM | > 100 µM | > 100 µM | > 100 | > 100 | 23.2 µM |  | 
